Laboratory results as given in patent US20230285516A1 (priority 2020, published 2023).

Key:
Treg (CD4+/FOXP3+) cells = assay: FACS of spleen Foxp3+ regulatory T cells in CIA models; assay type: in vivo, mice; settings: early and long-standing arthritis, first and second sacrifice, vs placebo
Procedure: (§1) Early Arthritis Model. Fifty mice with the same characteristics were immunized at the base of the tail with 100 μg of chicken type II collagen emulsified in complete Freund's adjuvant. The boost was applied on day 21 at the base of the tail with 100 μg of type II collagen emulsified with Freund's incomplete adjuvant. On the same boosting day, the treatments (a-d) were applied every week for six weeks. Three animals were euthanized in the sixth week and three in the thirteenth week. The spleen, lymph nodes, joint tissue, liver, lungs, kidneys and heart were obtained in order to assess the inflammatory infiltrate, the predominant cell populations and the expression of pro- and anti-inflammatory cytokines.
(§2) Established Arthritis Model. Arthritis was induced as in the previous model in 50 mice and the treatments were applied intramuscularly, after 2 weeks of the boost, every week for 6 weeks. Three animals were euthanized in the eighth week and three in the fifteenth week. The spleen, lymph nodes, joint tissue, liver, lungs, kidneys and heart were obtained in order to assess the inflammatory infiltrate, the predominant cell populations and the expression of pro- and anti-inflammatory cytokines.
Cytometric evaluation. Using FACS, the percentage of populations of Th1 ([…]), Th2 (CD4^+/IL-4^+), Treg (CD4^+/FOXP3^+) Th17 (CD4^+/IL-17^+) and dendritic (CD4−/CD11c^+) cells in spleen cells.
FIG. 10. Effect of type I polymerized collagen in the early (preventive) and long-standing (late or palliative) arthritis model on the percentage of spleen CD4+ T cell subpopulations. (A) Spleen cells obtained ex vivo in the early arthritis model during the first sacrifice. (B) Spleen cells obtained ex vivo in the early arthritis model during the second sacrifice. (C) Spleen cells obtained ex vivo in the long-standing arthritis model during the first sacrifice. […] The intracellular production of IL-17A, IL-4, IFN-γ and Foxp3 by CD4+ T cells was detected by flow cytometry. The results are representative of 6 mice analyzed in each group. […]

mice with CIA = assay: Histopathological analysis of hind legs, collagen-induced arthritis (CIA) models; assay type: in vivo; settings: H&E and PAS, intramuscular weekly for 6 weeks
Procedure: as §1, §2
Histological evaluation. The inflammatory infiltrate and tissue architecture were evaluated by H&E and Masson's trichrome staining and the content of proteoglycans, with the PAS technique. […]

CN(Cc1cnc2nc(N)nc(N)c2n1)c1ccc(C(=O)N[C@@H](CCC(=O)O)C(=O)O)cc1 [MTX, methotrexate, reference compound]
Foxp3+ regulatory T cells (Treg (CD4+/FOXP3+) cells): significant reduction
histopathology of joint tissue (inflammation, tissue architecture) (mice with CIA): induced some tissue abnormalities
